13 compounds from ChEMBL document CHEMBL1201862, “PubChem BioAssay data set” (2004) can be followed below.

The target in one experiment is Prothrombin (Homo sapiens, UniProt P00734). Nature of the experiment: Thrombin 1536 HTS Dose Response Confirmation. [Related pubchem assays: 1046 (Thrombin 1536 HTS; hits were confirmed in this assay)]. In kind it is functional.
Experiment [1] is described as follows: A cytotoxicity screen of small molecule inhibitors of the PhoP region in Salmonella typhi identified in the primary screen. [Related pubchem assays: 1850, 1864, 1985 ]. The class given is functional.
Experiment [2] is described as follows: P. falciparum late gametocyte killing, dose response, luminescence (AID 1117278).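 Also: gametocytes exposed to compound for 24 hours.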 In kind it is functional, cell-based.
Experiment [3] can be described thus: Jurkat T cell cytotoxicity, dose response, cytotoxicity control for P. falciparum gametocyte viability project, luminescence (AID 1117277).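 Also: potency reflects loss of cellular ATP meaning fewer viable cells.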 The class given is functional, cell-based.
A short description of experiment [4]: P. falciparum 3D7-ScDHODH growth inhibitors, dose response, SYBR Green, dry powder samples (AID 1159570).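 Also: parasite growth measured after 72 hours of compound exposure.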 The class given is functional, cell-based.
Experiment [5] is described as follows: HepG2 cell cytotoxicity, dose response, cytotoxicity control, plate reader, dry powder samples (AID 1159569).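 Also: inhibitor potency with signal falling toward the positive control level.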 The class given is functional, cell-based.
Experiment [6] in a line: P. falciparum Dd2 growth inhibitors, dose response, SYBR Green, cherry-picked samples (AID 1159567). In kind it is functional, cell-based.
The nature of experiment [7]: P. falciparum Dd2 growth inhibitors, dose response, SYBR Green, dry powder samples (AID 1159566).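 Also: potency for growth inhibition with lower SYBR green DNA signal.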 In kind it is functional, cell-based.
A short description of experiment [8]: P. falciparum ATP4 D1247Y mutant growth inhibitors, dose response, NITD609-resistant line, SYBR Green, dry powder (AID 1159571).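 Also: parasites synchronized at ring stage by sorbitol before testing.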 The class given is functional, cell-based.
Experiment [9] concerns the target T1, Mannose-6-phosphate isomerase (Homo sapiens, UniProt P34949).
T1 sequence (P34949 whole entry): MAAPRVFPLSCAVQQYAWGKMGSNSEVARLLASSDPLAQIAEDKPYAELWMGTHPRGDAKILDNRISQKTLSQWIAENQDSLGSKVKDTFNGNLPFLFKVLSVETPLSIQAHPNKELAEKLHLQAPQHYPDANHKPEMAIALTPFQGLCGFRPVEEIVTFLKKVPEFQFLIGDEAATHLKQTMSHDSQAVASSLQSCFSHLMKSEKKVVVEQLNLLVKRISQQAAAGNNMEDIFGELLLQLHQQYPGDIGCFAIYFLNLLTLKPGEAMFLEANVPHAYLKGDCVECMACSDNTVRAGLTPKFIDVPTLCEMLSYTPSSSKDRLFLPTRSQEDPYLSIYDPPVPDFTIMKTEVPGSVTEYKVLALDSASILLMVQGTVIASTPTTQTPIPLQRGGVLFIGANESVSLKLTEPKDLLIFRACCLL
Nature of the experiment: human PMI inhibitors, high substrate, primary screen, biochemical, fluorescence intensity, high mannose 6-phosphate (AID 1220).

Experiment [10] has as its target Glucose-6-phosphate 1-dehydrogenase (Homo sapiens, UniProt P11413). Nature of the experiment: human G6PD enzyme inhibitors, dose response, selectivity assay for P. falciparum G6PD inhibitor project, biochemical, fluorescence (AID 504792). The class given is functional.
Experiment [11] concerns the target T2, Polyadenylate-binding protein 1 (Homo sapiens, UniProt P11940). Put plainly: PABP1 MLLE–PAM2 interaction inhibitors, dose response, miRNA deadenylation inhibitor project, biochemical, fluorescence polarization, Cy5-PAM2 peptide, secondary (AID 602260). The class given is functional. The following applies: read-out: IC50_Mean. In general terms: Fluorescence polarisation rises when a labelled molecule tumbles more slowly, as on binding a larger partner.

In experiment [12] the target is T2, Polyadenylate-binding protein 1. Nature of the experiment: PABP1 MLLE–PAM2 binding inhibitor potency, dose response, biochemical, fluorescence polarization, FITC-PAM2 peptide (AID 602259). The settings on record: read-out: IC50_Mean. In kind it is functional.
The target of experiment [13] is T3, Calpain-2 catalytic subunit (Sus scrofa, UniProt P43367).
T3 sequence (P43367 whole entry): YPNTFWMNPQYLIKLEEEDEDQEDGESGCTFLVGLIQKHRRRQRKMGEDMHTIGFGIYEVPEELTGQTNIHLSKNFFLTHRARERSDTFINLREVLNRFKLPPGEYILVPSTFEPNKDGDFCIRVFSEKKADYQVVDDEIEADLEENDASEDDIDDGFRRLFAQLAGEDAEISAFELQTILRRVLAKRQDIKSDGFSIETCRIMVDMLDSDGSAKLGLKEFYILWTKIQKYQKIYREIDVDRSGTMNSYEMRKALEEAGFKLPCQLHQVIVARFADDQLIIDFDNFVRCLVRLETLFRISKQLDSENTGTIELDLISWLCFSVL
Nature of the experiment: pig calpain II inhibitor potency, dose response, biochemical, fluorogenic peptide substrate (AID 1420). In kind it is functional.

Another experiment has as its target Paired box protein Pax-8 (Homo sapiens, UniProt Q06710). Put plainly: inhibitors of PAX8-driven TPO luciferase reporter, dose response, RMG-I cells, cherry-pick (AID 687027).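 Also: luciferase reporter driven by Pax8 target thyroperoxidase promoter measured by SteadyGlo luminescence.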 In kind it is functional, cell-based. (A reporter such as luciferase makes a cellular process visible.)
The nature of experiment [14]: A2780 ovarian cancer cell cytotoxicity, dose response, cytotoxicity control, plate reader, dry powder samples (AID 743046). In kind it is functional, cell-based.
Experiment [15] in a line: NIH:OVCAR-3 ovarian cancer cell cytotoxicity, dose response, PAX8 inhibitor project, plate reader, dry powder samples (AID 743044). The class given is functional, cell-based.
Experiment [16] in a line: IGROV1 ovarian cancer cell cytotoxicity, dose response, PAX8 inhibitor project, plate reader, dry powder samples (AID 743043). The class given is functional, cell-based. The settings on record: IGROV-1.
The nature of experiment [17]: cytotoxicity in OVCAR8 ovarian cancer cells, dose response, PAX8 project, cell-based, plate reader, dry powder samples (AID 743197). In kind it is functional. The following applies: OVCAR-8.
The target in the next experiment is T4, Aminopeptidase N (Plasmodium falciparum FcB1/Columbia, UniProt O96935).
T4 sequence (O96935 whole entry): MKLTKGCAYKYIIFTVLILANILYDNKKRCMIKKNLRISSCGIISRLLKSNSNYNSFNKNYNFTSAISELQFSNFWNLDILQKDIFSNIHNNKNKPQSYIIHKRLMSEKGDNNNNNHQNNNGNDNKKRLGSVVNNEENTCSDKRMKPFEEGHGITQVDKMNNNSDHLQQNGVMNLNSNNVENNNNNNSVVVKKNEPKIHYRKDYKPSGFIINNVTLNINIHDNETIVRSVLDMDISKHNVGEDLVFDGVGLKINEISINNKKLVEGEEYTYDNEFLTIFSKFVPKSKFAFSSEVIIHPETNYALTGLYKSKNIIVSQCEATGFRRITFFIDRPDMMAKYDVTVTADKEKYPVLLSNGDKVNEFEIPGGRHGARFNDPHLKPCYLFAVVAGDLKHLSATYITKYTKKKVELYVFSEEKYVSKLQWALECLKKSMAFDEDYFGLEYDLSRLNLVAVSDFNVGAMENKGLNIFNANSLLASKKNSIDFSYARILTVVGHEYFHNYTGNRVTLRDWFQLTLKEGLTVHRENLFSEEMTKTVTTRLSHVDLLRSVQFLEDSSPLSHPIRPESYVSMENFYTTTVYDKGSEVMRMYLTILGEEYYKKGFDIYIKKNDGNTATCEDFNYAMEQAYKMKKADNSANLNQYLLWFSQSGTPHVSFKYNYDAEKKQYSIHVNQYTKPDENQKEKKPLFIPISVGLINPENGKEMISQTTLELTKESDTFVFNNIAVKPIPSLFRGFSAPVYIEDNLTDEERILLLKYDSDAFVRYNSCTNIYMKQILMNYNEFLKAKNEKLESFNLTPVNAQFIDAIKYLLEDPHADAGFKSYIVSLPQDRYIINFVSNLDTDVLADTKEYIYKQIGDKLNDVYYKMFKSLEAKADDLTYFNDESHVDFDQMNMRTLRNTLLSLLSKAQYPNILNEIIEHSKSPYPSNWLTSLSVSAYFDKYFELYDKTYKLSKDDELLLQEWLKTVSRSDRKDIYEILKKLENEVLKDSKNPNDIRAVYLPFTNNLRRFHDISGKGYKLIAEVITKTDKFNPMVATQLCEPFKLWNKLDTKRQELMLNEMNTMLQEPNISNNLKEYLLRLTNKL
Nature of the experiment: P. falciparum M1AAP inhibitors, biochemical, fluorogenic H-Leu-NHMec substrate, 1536-well (AID 1445). Details: species or system Plasmodium falciparum 3D7, 3D7.

Experiment [18] has as its system HEK293. Nature of the experiment: cells. In kind it is functional, cell-based. The following applies: Homo sapiens.
For experiment [19], the system named is HEK293. Put plainly: cells. In kind it is functional, cell-based. The following applies: Homo sapiens. The source holds these as a separate data set.
Experiment [20] has as its system HEK293. Nature of the experiment: NOD2 signaling inhibitors in MDP-stimulated cells, cell-based, uHTS, luminescence (AID 2001). In kind it is functional. The settings on record: Homo sapiens.
The next experiment has as its target Genome polyprotein (dengue virus type 2, UniProt P29990). Nature of the experiment: Dengue-2 NS5 methyltransferase inhibitors, primary screen, biochemical, confirmation dose response (AID 588689). In kind it is functional.
A further experiment addresses Cytochrome P450 2D6 (Homo sapiens, UniProt P10635).
A further experiment deals with T5, Cytochrome P450 1A2 (Homo sapiens, UniProt P05177).
T5 sequence (P05177 whole entry): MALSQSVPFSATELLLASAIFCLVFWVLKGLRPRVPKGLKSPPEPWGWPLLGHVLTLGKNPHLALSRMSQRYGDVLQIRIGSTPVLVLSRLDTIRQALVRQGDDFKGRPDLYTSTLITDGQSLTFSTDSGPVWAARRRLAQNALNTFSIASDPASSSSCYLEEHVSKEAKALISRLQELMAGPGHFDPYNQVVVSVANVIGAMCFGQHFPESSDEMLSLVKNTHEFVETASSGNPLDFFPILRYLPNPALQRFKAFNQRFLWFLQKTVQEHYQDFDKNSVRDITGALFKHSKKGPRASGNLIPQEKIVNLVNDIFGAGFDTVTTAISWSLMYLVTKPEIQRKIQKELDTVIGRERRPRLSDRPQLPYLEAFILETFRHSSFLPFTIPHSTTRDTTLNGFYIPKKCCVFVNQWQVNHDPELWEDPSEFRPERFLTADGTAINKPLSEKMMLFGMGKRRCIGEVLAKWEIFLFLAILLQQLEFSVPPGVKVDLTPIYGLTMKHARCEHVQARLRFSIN

Activity calls are given as the source filed them.

T2 sequence (P11940 whole entry): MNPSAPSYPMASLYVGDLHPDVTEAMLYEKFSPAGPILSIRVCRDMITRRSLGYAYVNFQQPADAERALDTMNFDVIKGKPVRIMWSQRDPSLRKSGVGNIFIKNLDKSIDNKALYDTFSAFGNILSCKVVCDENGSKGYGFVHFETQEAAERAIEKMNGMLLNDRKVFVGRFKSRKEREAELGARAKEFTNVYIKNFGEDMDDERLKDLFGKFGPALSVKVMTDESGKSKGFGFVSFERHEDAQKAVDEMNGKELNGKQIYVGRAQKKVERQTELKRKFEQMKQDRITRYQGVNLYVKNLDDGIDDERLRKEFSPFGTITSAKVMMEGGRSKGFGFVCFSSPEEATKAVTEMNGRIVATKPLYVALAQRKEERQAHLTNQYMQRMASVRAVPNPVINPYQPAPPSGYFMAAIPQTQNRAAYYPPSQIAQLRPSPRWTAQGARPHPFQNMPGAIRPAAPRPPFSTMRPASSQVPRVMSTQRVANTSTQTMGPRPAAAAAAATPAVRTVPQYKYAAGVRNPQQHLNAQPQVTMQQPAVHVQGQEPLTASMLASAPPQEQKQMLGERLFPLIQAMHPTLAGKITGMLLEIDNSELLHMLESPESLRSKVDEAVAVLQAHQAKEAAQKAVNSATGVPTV
Chain of Paired box protein Pax-8 (Q06710 whole entry): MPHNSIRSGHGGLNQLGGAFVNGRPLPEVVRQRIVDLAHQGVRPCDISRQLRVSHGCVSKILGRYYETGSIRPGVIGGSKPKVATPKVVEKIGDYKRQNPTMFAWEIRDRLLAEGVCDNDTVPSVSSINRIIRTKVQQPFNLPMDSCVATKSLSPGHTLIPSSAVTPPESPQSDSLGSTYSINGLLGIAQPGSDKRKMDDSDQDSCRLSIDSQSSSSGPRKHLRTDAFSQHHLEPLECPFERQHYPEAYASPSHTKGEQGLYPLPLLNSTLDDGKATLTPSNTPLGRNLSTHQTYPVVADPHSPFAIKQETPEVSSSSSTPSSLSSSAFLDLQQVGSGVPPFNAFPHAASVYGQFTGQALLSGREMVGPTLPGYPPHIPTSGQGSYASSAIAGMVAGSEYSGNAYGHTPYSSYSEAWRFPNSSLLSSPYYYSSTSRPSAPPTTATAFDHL
Chain of Cytochrome P450 2D6 (P10635 whole entry): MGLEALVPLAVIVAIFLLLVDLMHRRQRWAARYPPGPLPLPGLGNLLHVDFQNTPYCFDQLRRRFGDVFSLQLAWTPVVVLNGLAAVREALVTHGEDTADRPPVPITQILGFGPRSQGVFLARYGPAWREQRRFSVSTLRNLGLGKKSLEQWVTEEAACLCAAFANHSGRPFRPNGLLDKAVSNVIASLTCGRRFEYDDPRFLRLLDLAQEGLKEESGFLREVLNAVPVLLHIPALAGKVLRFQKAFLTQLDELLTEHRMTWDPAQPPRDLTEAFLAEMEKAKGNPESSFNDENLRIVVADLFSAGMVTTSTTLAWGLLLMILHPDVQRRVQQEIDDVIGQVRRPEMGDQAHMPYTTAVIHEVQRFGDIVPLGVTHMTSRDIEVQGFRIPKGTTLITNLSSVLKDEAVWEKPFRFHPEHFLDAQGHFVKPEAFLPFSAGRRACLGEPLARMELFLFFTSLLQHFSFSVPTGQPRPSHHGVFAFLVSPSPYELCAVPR
Chain of Glucose-6-phosphate 1-dehydrogenase (P11413 whole entry): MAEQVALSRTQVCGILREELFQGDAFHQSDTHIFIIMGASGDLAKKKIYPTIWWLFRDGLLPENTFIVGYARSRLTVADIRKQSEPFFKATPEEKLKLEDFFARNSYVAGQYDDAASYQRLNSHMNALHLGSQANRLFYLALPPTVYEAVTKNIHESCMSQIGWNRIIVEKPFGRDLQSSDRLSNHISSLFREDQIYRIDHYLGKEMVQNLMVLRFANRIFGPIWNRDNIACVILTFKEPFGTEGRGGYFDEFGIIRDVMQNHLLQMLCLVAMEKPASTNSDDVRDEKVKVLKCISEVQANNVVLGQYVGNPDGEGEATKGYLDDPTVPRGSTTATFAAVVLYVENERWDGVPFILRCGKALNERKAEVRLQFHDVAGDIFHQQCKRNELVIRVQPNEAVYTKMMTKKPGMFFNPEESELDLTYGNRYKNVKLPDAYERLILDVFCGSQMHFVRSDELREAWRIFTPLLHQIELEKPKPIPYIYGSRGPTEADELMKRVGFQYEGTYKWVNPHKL
Chain of Genome polyprotein (P29990 2492-3391 limits assumed): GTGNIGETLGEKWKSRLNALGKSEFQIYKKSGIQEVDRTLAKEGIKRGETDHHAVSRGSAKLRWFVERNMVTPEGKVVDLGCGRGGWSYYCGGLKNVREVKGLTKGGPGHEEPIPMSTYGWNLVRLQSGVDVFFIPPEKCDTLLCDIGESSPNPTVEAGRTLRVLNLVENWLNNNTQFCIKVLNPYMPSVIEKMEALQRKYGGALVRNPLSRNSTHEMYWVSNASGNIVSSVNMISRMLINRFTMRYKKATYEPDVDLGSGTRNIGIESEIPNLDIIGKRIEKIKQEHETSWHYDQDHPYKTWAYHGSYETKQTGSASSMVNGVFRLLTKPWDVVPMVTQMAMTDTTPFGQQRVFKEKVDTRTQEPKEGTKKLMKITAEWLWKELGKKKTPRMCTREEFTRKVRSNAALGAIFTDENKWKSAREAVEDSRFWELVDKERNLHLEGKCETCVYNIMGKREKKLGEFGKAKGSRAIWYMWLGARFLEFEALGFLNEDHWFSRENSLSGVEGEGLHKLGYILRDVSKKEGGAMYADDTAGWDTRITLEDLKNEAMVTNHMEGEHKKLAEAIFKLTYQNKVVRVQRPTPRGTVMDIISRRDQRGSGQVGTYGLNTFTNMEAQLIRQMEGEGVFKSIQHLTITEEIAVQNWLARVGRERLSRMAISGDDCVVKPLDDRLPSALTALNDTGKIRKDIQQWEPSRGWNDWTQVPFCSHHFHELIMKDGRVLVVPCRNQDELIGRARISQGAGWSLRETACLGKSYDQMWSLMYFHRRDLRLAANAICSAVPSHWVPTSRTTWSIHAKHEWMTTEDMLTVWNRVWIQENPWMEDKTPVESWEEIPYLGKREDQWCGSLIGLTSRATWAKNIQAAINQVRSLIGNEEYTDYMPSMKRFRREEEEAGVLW

Consider `Cc1ccc(C(=O)N2C(CC(=O)Nc3ccc(Cl)cc3)C(=O)NC3CCCCC32)cc1` (centres undefined), for which the IC50 at Prothrombin is 3.25 µM (active).

Regarding `Cc1nc(-c2ccc(C(=O)N3CCOCC3)cc2)cs1`, in experiment [1], the EC50 was > 50 µM (active). Further, the figures for the IC50 in experiment [2] and in experiment [3] were > 109 µM (inactive) and > 83.3 µM (inactive), respectively.

For the compound `C[C@@H]1CN([C@H](C)CO)C(=O)c2ccccc2-c2ccccc2CO[C@@H]1CN(C)Cc1ccc(C(F)(F)F)cc1`, the AC50 in [4] is 3.53 µM (active); in experiment [5] it was 21.5 µM (active); in experiment [6], 2.16 µM (active); in [7], 1.93 µM (active); in experiment [8], 1.82 µM (active).

For the compound `Cc1ccccc1/N=C/c1cccc(O)c1O`, in experiment [9], the IC50 was 11.2 µM (active).

Regarding `Cc1ccc(-c2nc(N)s[n+]2-c2ccccc2)cc1`, the IC50 is 4.91 µM (active) in experiment [9], 27.2 µM (inactive) in experiment [10], > 66 µM (inactive) in experiment [11] and > 66 µM (inactive) in experiment [12].

Consider `CCC(C)NS(=O)(=O)c1ccc(NS(C)(=O)=O)cc1` (centres undefined), for which the results for the IC50 in experiment [2] and in [3] were > 109 µM (inactive) and > 83.3 µM (inactive), respectively.

As to `O=C(COc1ccc([N+](=O)[O-])cc1)Nc1ccc(CN2CCOCC2)cc1`, the IC50 in experiment [13] was 41.1 µM (not active).

Regarding `COc1ccc(/C=C/c2c(-c3ccc(OC)cc3)oc3cccnc23)cc1`, the IC50 in experiment [2] is > 109 µM (inactive); in [3], > 83.3 µM (inactive).

For `CCOC(=O)C1CCN(Cc2c(O)ccc3ccccc23)CC1`, the IC50 in experiment [9] is > 50 µM (not active).

On to `Cc1ccc(S(=O)(=O)Nc2ccc3c(c2)C(=O)N([C@H](C)CO)C[C@@H](C)[C@@H](CN(C)CC2CCCCC2)OCCCC[C@@H](C)O3)cc1`, for which the AC50 on Paired box protein Pax-8 was 5.51 µM (active); in experiment [14], 38.2 µM (active); in experiment [15], 26.5 µM (active); in [16], 38.8 µM (active); in experiment [17], 40.4 µM (active).

In the case of `O=S(=O)(Nc1nc(-c2sccc2Cl)cs1)c1cc(Cl)ccc1Cl`, the IC50 is 44.1 µM (active) at Aminopeptidase N; 10.4 µM (active) with HEK293 [18]; 17.7 µM (active) with HEK293 [19]; 7.47 µM (active) in the experiment on HEK293 [20]; 5 µM (not active) in experiment [13]; 41.6 µM (active) at Genome polyprotein. The AC50 at Cytochrome P450 2D6 and on Cytochrome P450 1A2 was 28.2 µM (inconclusive) throughout.

Consider `COc1ccc(NC(=O)N(C)C[C@H]2Oc3cc(C#CCC(C)C)ccc3S(=O)(=O)N([C@H](C)CO)C[C@H]2C)cc1`, for which the AC50 was 1.5 µM (active) in experiment [4]; 38.3 µM (active) in [5]; 1.3 µM (active) in experiment [6]; 1.21 µM (active) in [7]; 1.7 µM (active) in experiment [8].

For the compound `Cn1nnc(CC[N+](C)(C)C)n1`, the IC50 on Prothrombin was > 50 µM (not active).

For orientation: EC50 means the concentration at which the effect is half-maximal. Usually AC50 stands for the concentration at which the activity in the assay is half-maximal.
